The record followed here is US8901146B2, “Aminoalkylpyrimidine derivatives as histamine H4 receptor antagonists” (Medicis Pharmaceutical Corporation, priority 2009, dated 2014).

Molecules are shown by their SMILES.

The test system of this experiment is Male BALB/c mice. Kind of experiment: Murine atopic dermatitis model by multiple oxazolone challenges. It counts as in vivo. The following applies: result in words. On the procedure: Murine Atopic Dermatitis Model by Multiple Oxazolone Challenges
Method: Male BALB/c mice (n=5-7 per group) were sensitised on Day 1 by the topical application of 50 μL of 1% oxazolone in acetone/olive oil (4:1) on the abdominal skin. On days 8, 10, 12, 15, 17, 19, 22, 24 and 26, animals received repeated challenges with 25 μL of 0.2% oxazolone, applied topically on the inner side of their right ear. On days 8-26, 25 μL of a solution of the test compound (prepared by dissolving compound in acetone/olive oil 4:1 and heating) at the desired concentration were administered on the outer side of the right ears. On days 12, 19 and 26, right ear thickness was determined with a calliper one hour after oxazolone application.

Consider `CNC1CN(c2cc(CNCC3CC3)nc(N)n2)C1` [Example 1b, 4-((Cyclopropylmethylamino)methyl)-6-(3-(methylamino)azetidin-1-yl)pyrimidin-2-amine], for which the “in vivo activity in the atopic dermatitis model of example 10” value is on record as “outstanding in vivo activity”.

As for `CNC1CN(c2cc(CNC3CCCC3)nc(N)n2)C1` [Example 1t, 4-((Cyclopentylamino)methyl)-6-(3-(methylamino)azetidin-1-yl)pyrimidin-2-amine], the “in vivo activity in the atopic dermatitis model of example 10” value is “outstanding in vivo activity”.
